Measured values published in patent EP1039902B1, “INHIBITORS OF GAP JUNCTION COMMUNICATION” (THE SCRIPPS RESEARCH INSTITUTE, priority 1997, dated 1999).
Entries after “also recorded” stand apart in the source; their conditions may differ. Read-outs that look alike come from different tables or passages of the source.

Key:
[1] = system: rat glial cell gap junction; assay: Gap junction dye coupling assay (Lucifer yellow dye transfer; microinjection or scrape loading); assay type: cell-based; settings: for potency of gap junction inhibition relative to oleamide: comparison in words; for reversibility of gap junction inhibition: removal of media containing the agent, replacement with fresh media
Method: (§1) Rat glial cells (Suter et al., 1987) obtained from Dr. Trosko's laboratory were cultured in standard plastic tissue cultureware in Richter's Improved Minimal Essential Medium (Irvine Scientific, Santa Ana, CA), supplemented with 10% fetal calf serum and 50 µg/ml gentamicin sulfate, and incubated in a humidified atmosphere of 95% air/5% CO2 at 37°C. The cells were passaged by trypsinization and used at passages 4-8. BHK (baby hamster kidney) cells that were stably transfected with a β1 connexin cDNA (Kumar et al., 1995) were cultured in DMEM medium supplemented with 5% fetal calf serum and 50 µg/ml gentamicin sulfate, and incubated in a humidified atmosphere of 95% air/5% CO2 at 37° C. In order to induce β1 connexin expression in the BHK cells, 100 µM zinc acetate was added to culture medium for 8-18 hours when the cell culture was about 90% confluent.
(§2) Gap junctional communication in glial cell and BHK/β1 cell cultures was assayed by microinjection of 5% Lucifer yellow CH dye in 0.1 M LiCl solution, and quantitated by determining the number of directly adjacent, neighboring cells that received dye (dye-coupling). Micropipettes were loaded with the dye solution by backfilling. Cells were visualized using a Nikon Diaphot inverted phase contrast/ epifluorescent microscope, and impaled with dye-filled micropipettes using an Eppendorf microinjector (model 5246). Five minutes after dye-injection, the transfer of dye to directly adjacent cells was determined using epifluorescent illumination. For each treatment condition, ten cells were microinjected in each of three dishes, the total number of dye-coupled neighboring cells was calculated and compared to determine the % dye-coupling. For scrape loading measurements, Lucifer yellow CH (0.05% dye in PBS) was loaded intracellularly by cutting or scraping cells in the monolayer with a sharp knife. The dye solution was left in the dish for 90 seconds, then the solution was discarded, and the dish subsequently washed with PBS. The cells were examined for dye transfer with an inverted epifluorescence microscope, and the degree of communication was assessed by determining the extent of Lucifer yellow transfer into contiguous cells.

[2] = system: Chinese hamster V79 cells; settings: cited from earlier work
[3] = target: T1, fatty acid amide hydrolase (Rattus norvegicus, UniProt P97612); assay: Inhibition of fatty acid amide hydrolase; assay type: biochemical
T1 sequence (P97612 1-579): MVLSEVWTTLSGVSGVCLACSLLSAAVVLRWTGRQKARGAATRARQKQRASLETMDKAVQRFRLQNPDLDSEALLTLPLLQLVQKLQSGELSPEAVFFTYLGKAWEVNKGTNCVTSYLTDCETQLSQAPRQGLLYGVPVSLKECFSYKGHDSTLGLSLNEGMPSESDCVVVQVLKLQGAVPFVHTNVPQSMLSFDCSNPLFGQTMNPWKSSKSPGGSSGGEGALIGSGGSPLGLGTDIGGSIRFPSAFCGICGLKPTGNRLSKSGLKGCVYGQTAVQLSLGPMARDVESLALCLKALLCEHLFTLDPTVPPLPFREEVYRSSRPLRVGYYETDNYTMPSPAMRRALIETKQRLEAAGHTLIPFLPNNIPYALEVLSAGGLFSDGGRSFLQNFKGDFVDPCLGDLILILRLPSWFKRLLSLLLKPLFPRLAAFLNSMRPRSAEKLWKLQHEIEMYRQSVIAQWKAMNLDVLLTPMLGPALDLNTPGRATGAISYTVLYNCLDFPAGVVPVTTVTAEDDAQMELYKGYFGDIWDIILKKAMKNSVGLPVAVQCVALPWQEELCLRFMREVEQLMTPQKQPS

[4] = system: BHK/β1 cells; assay: Gap junction dye transfer between β1 connexin-transfected BHK cells; assay type: cell-based, baby hamster
Method: as §1, §2

[5] = system: rat cardiac myocytes; settings: cited from earlier work
[6] = system: α1 connexin; assay: Immunoblotting of α1 connexin phosphorylation isoforms; assay type: cell-based, rat; settings: for α1 connexin phosphorylation profile (P2 isoform): 50 µM, 4 hours
Method: Plasma membrane fractions containing gap junctions were obtained after hypotonic alkali extraction of the glial cells. The extracted protein was dissolved in 2% SDS and the total protein was determined using the Bio-Rad DC Protein Assay kit (Bio-Rad Corp.). 10 µg of protein was electrophoresed by 10% SDS-PAGE, and subsequently blotted electrophoretically on to Immobilon-P membranes (Millipore Corp.). Gap junction protein was detected using anti-α1 connexin polyclonal rabbit antibodies, and the HRP/Chemiluminescence detection kit (Amersham Corp.) following the manufacturer's instructions.

[7] = system: rat glial cells; assay: Gap junction electrical coupling assay (double whole cell patch recording); assay type: cell-based
Method: Junctional conductance was measured using double whole cell patch recording performed on pairs of rat glial cells as described (Miller et al., (1992) J Mem. Biol. 128, 91-102) with a pipette solution of (in […]): Kaspartate 160, EGTA 10, CaCl2 2, HEPES 10 (pH 7.2), ATP 4. The external solution contained (in mM): NaCl 160, KCl 4.5, CaCl2 2, MgCl2 1, HEPES 10, pH 7.4. Both cells were held at -40 mV and pulses to -20 mV were alternately applied to each cell. Holding currents were subtracted in the records shown. Cells that were examined were generally in contact with other cells. The electrical conductance was calculated as the junctional current divided by 20 mV. All dye-coupling and conductance studies were performed at room temperature.

[8] = system: astrocyte; settings: cited from earlier work
[9] = system: rat glial cells; assay: Calcium wave propagation (Fluo-3, mechanical stimulation); assay type: cell-based
Method: Rat glial cells were loaded with 5 µM Fluo-3/AM (Calbiochem) in Hank's balanced salt solution containing 25 mM HEPES buffer (HBSS/HEPES) for 1 hour, at which point the loading buffer was exchanged for new HBSS/HEPES buffer. The cell cultures were then left at room temperature for at least 30 minutes. Mechanical stimulation of a single cell was performed as follows: a glass micropipette (tip diameter of approximately 0.5 µm) was micro-manipulated downward on to a single cell causing a transient deformation of the cell membrane. The calcium image was then examined with an inverted fluorescence microscope, and photographed with a digital fluorescence microscope (excitation = 506 nm, emmision = 526 nm). The degree of calcium wave propagation was quantitated by counting at different time points the number of transmitting cells in one linear direction away from the stimulated cell. Junctional dye transfer rates were simultaneously examined by microinjection of Lucifer yellow CH in the same dishes; the methods for dye transfer assay was described in assay procedures, gap junction dye coupling assays. For calcium wave and dye transfer studies, the drug was preincubated with the glial cells for 10 minutes, and the drug was left in the experimental solution throughout the examination. All measurements were performed at room temperature.

[10] = system: astrocyte calcium waves; settings: mechanical stimulation or local glutamate application; cited from earlier work
[11] = system: striatal astrocytes; settings: cited from earlier work
[12] = Induction of physiological sleep; assay type: in vivo; settings: rats
[13] = animals, ip or iv injection; cited from earlier work
[14] = system: mammalian myocardial cells; assay: Gap junctional communication between myocardial cells (preliminary analysis); assay type: cell-based; settings: unpublished observations
[15] = system: rat liver epithelial cells; settings: cited from earlier work
[16] = result in words, concentration not stated at the place

Question: What does the source list for `CCCCCCCC/C=C\CCCCCCCC(=O)OCC(CO)OC(C)=O` (racemic) [1-oleoyl-2-acetylglycerol, reference compound]?
Answer: inhibition of gap junction-mediated dye transfer [1, 16]: not inhibitors; gap junction inhibition [2]: gap junction inhibition

Question: What does the source list for `CCCCCCCC/C=C\CCCCCCCC(=O)C(F)(F)F` [CF3]?
Answer: potency of gap junction inhibition relative to oleamide [1]: significantly more potent than oleamide; reversibility of gap junction inhibition [1]: reversible effect; Ki [3]: 1 nM

Question: Which results are given for `CCCCCCCC/C=C\CCCCCCCC(=O)O` [Oleic acid, reference compound]?
Answer: inhibition of gap junction-mediated dye transfer [1, 16]: inactive; also recorded: no effect; inhibition of gap junction-mediated dye transfer ([1]; result in words, concentration not stated at the place, listed as oleic acid): no effect; effect on dye transfer ([4]; 50 µM, 4 hours of treatment): no effect; effect on dye transfer ([4]; concentration not given): no effect; gap junction inhibition [5]: inhibit the gap junction; gap junction inhibition ([5]; listed as oleic acid): inhibit gap junction communication; α1 connexin phosphorylation profile (P2 isoform) [6]: No change

Question: What does the source list for `CCCCC/C=C\C/C=C\C/C=C\C/C=C\CCCC(=O)NCCO` [anandamide, reference compound]?
Answer: inhibition of gap junction-mediated dye transfer ([1]; 50 µM): effective inhibitors; potency of gap junction inhibition relative to oleamide [1]: blocked dye transfer at doses comparable to oleamide; inhibition of gap junction-mediated dye transfer [1, 16]: selectively inhibiting gap junction communication; effect on dye transfer ([4]; concentration not given): inhibitory effects; electrical coupling ([7]; concentration not given): selectively inhibiting gap junction communication; gap junction-mediated dye transfer [8]: inhibit gap junction-mediated dye transfer; calcium wave transmission ([9]; concentration not given): without affecting calcium wave transmission; propagation of astrocyte calcium waves [10]: block the propagation of astrocyte calcium waves

Question: With `CCCCC/C=C\C/C=C\C/C=C\C/C=C\CCCC(=O)O` [arachidonic acid] as the compound, how does the gap junction inhibition [11] read?
Answer: inhibit the gap junction

Question: Which “inhibition of gap junction-mediated dye transfer” value [1, 16] does the source give for `CCCCCCCC/C=C\CCCCCCCCCCCC(N)=O` [erucamide, Erucamide] here?
Answer: not an inhibitor

Question: What about the “induction of physiological sleep” value [12] of the same compound?
Answer: does not induce physiological sleep

Question: Which “inhibition of glial cell dye transfer” value ([1]; 20 µM, preincubation 4 h) does the source give for `CCCCCCCC/C=C\CCCCCCCC(N)=O` [oleamide, cis-9-octadecenamide] here?
Answer: significantly inhibited

Question: What about the “block of intercellular dye transfer, microinjected Lucifer yellow” value ([1]; 50 µM for 10 min) of the same compound?
Answer: completely blocked intercellular dye transfer

Question: And the “inhibition of dye transfer” value ([1]; 50 µM, 4 h prior to injection of Lucifer yellow (dose-response))?
Answer: complete inhibition

Question: What about the “recovery of dye transfer after removal of oleamide” value ([1]; 50 µM, then fresh media without oleamide) of the same compound?
Answer: Complete recovery of dye transfer to control levels was observed within one hour

Question: And the inhibition at 20 µM ([1]; Rattus norvegicus, Glial cell, read-out: inhibition of dye transfer)?
Answer: ~50%

Question: What about the “restoration of dye-coupling under continual exposure” value ([1]; continually exposed for up to 24 h) of the same compound?
Answer: no restoration of dye-coupling

Question: What about the “time for junctional communication to recover to control levels after removal of oleamide” value ([1]; culture media changed) of the same compound?
Answer: ≤ 1 h

Question: What about the “inhibition of gap junction-mediated dye transfer” value [1, 16] of the same compound?
Answer: most potent inhibitor

Question: And the “dye transfer after scrape loading with Lucifer yellow” value ([1]; scrape loaded cells, pretreatment with oleamide)?
Answer: fully abrogated; also recorded: no dye spread to adjacent cells

Question: And the “effect on dye transfer” value ([4]; 50 µM for 10 min)?
Answer: no dye transfer

Question: What about the “effect on dye transfer” value ([4]; 50 µM for 10 min, listed as Oleamide) of the same compound?
Answer: rapidly and completely block dye transfer

Question: What about the “effect on dye transfer” value ([4]; 50 µM, 4 hours of treatment) of the same compound?
Answer: completely blocked dye transfer

Question: And the dye transfer ([4]; 50 µM, 4 hours of treatment, zinc induced sample)?
Answer: 0.31 ± 0.24%

Question: And the “α1 connexin phosphorylation profile (P2 isoform)” value [6]?
Answer: dramatic loss of the P2 isoform

Question: What about the “reversibility of the effect on the α1 phosphorylation profile” value ([6]; removal of oleamide, normal culture media for 4 hours) of the same compound?
Answer: proved reversible

Question: What about the junctional electrical coupling ([7]; 50 µM) of the same compound?
Answer: completely blocked; also recorded: completely uncoupled

Question: What about the “residual junctional conductance (upper limit)” value ([7]; 50 µM) of the same compound?
Answer: less than 50 pS

Question: What about the mean junctional conductance ([7]; 50 µM, n=5) of the same compound?
Answer: 0.5 ± 0.7 nS

Question: And the “mechanically-stimulated or glutamate-induced calcium wave propagation” value [9]?
Answer: no inhibitory effect

Question: What about the “mechanically-induced calcium wave propagation” value ([9]; 50 µM, preincubation from 10 minutes to 4 hours) of the same compound?
Answer: no impact; also recorded: indistinguishable manner from control cell populations

Question: And the “induction of physiological sleep” value [13]?
Answer: induce physiological sleep

Question: And the “sensitivity of gap junctional communication to the inhibitory action” value [14]?
Answer: not as sensitive

Question: For `CCCCCCCC/C=C\CCCCCCCC=O` [oleyl aldehyde], which “potency of gap junction inhibition relative to oleamide” value [1] is on record?
Answer: nearly equipotent with oleamide

Question: And the “reversibility of gap junction inhibition” value [1]?
Answer: reversible effect

Question: What about the “inhibition of gap junction-mediated dye transfer” value [1, 16] of the same compound?
Answer: surprisingly effective

Question: And the Ki [3]?
Answer: 190 nM

Question: Which results are given for `CCCCCCCC/C=C\CCCCCCCC(=O)NCCO` [oleyl ethanolamide]?
Answer: inhibition of gap junction-mediated dye transfer ([1]; 50 µM): effective inhibitors; inhibition of gap junction-mediated dye transfer ([1]; 50 µM, listed as Oleyl ethanolamide): significant inhibitors; potency of gap junction inhibition relative to oleamide [1]: less potent than oleamide; potency of gap junction inhibition relative to oleamide ([1]; listed as Oleyl ethanolamide): less potent than oleamide at lower doses; gap junction-mediated dye transfer [8]: inhibit gap junction-mediated dye transfer; propagation of astrocyte calcium waves [10]: block the propagation of astrocyte calcium waves

Question: Which gap junction inhibition [15] does the source give for `CC/C=C\C/C=C\C/C=C\CCCCCCCC(=O)O` [α-linolenic acid] here?
Answer: inhibit the gap junction
